Experimental data taken from US20250339442A1, “METHODS OF TREATMENT USING A DUAL SPECIFICITY TYROSINE-PHOSPHORYLATION-REGULATED KINASE 1A (DYRK1A) INHIBITOR” (Fresh Tracks Therapeutics, Inc., priority 2022, published 2025).
Entries after “also recorded” stand apart in the source; their conditions may differ.

Experiments:
[1] = system: IMQ-induced psoriasis-like inflammation; test: Imiquimod (IMQ)-induced psoriasis-like dermal inflammation; assay type: in vivo; conditions: BALB/c mice
Excerpt: The anti-inflammatory activity of Compound A in the imiquimod (IMQ)-induced psoriasis-like dermal inflammation in BALB/c mice was investigated.

[2] = system: PBMCs from subjects with ulcerative colitis; test: Pro-inflammatory cytokine expression in PBMCs from subjects with ulcerative colitis (cytometric bead array); assay type: cell-based, human
Excerpt: The anti-inflammatory effect of Compound A in PBMCs from subjects with ulcerative colitis was studied. The expression of pro-inflammatory cytokines IL-1β, IL 6, IL-8, IL-10 and TNF-α was investigated using a cytometric bead array (CBA).

[3] = system: house dust-induced atopic dermatitis; test: House dust-induced atopic dermatitis model; assay type: in vivo, mice
Excerpt: The potential anti-inflammatory and anti-pruritic effects of Compound A were investigated in a house dust-induced atopic dermatitis model in mice.

[4] = system: Collagen-Induced Arthritis; test: Collagen-Induced Arthritis Model; assay type: in vivo, DBA/1 mice; conditions: 60 mg/kg once daily, vs vehicle only treated animals
Protocol: Furthermore, the efficacy of Compound A in the Collagen-Induced Arthritis Model in DBA/1 mice was tested. Immunization with Type II Chicken Collagen led to the development of arthritis. In comparison with vehicle only treated animals, mice treated once daily with 60 mg/kg Compound A led to a reduction in arthritis index scores, paw measurements, and histopathology scores.

CD4+ T cells = test: Differentiation of CD4+ T cells (Th1, Th17, Treg); assay type: cell-based
Excerpt: Th1 and Th17 cells are main players contributing to organ specific autoimmune disease and inflammation.

[5] = oral 30 mg/kg/day QD or BID x 21 days, in comparison with controls

CCNc1cc(Nc2ccc(C(=O)N3CCC(N4CCOCC4)CC3)cc2OC)nc2[nH]cc(C(F)(F)F)c12 [Compound A, (4-((4-(ethylamino)-3-(trifluoromethyl)-1H-pyrrolo[2,3-b]pyridin-6-yl)amino)-3-methoxyphenyl)(4-morpholinopiperidin-1-yl)methanone]
IMQ-induced psoriasis-like inflammation (ear swelling) ([1]; 45 mg/kg PO BID x 9 days): significantly (p<0.05) protective effects | IMQ-induced psoriasis-like inflammation (ear swelling) ([1]; 60 mg/kg PO BID x 9 days): significantly (p<0.05) protective effects | expression of pro-inflammatory cytokines IL-1β, IL 6, IL-8, IL-10 and TNF-α [2]: reducing pro inflammatory cytokines in PBMCs; also recorded: statistically significant reduction | T cell subset levels in the skin (immunohistochemical staining) ([3]; in comparison with vehicle controls and the positive control abrocitinib): decreased all subset levels in the skin | IL-4 level in the skin [3, 5]: markedly reduced | IL-13 level in the skin [3, 5]: markedly reduced | IL-17 level in the skin [3, 5]: markedly reduced | arthritis index scores [4]: reduction | histopathology scores [4]: reduction | paw measurements [4]: reduction | development of Treg cells (CD4+ T cells): enhanced the development of Treg cells; also recorded: enhancing the development of Treg cells | differentiation of Th1 and Th17 cells (CD4+ T cells): inhibiting the differentiation of Th1 and Th17 cells; also recorded: inhibition of Th1 and Th7 cells
